Patent publication EP0562479A1, “1-Phenyl-5-heterocyclic-1H-1, 2,4-triazole-3-carboxamide derivates, process for preparation of the same, and fungicidal composition comprising the same” (KUREHA CHEMICAL INDUSTRY CO., LTD., priority 1992, dated 1993)

Tested on: Botrytis cinerea
Experiment: Test for controlling effect against cucumber gray mold
Type: in vivo, Botrytis cinerea on cucumber
Conditions: wettable powder sprayed 5 ml per pot, lesion areas three days after inoculation
Description: Test Example 1 〈Test for controlling effect against cucumber gray mold (Botrytis cinerea on cucumber)〉 A wettable powder similar to that prepared in Formulation Example 2, diluted with water to a prescribed concentration, was sprayed onto the cucumber plants of the first leaf stage (variety: […], one plant per pot) growing in an unglazed pot (diameter: 10 cm), in an amount of 5 ml per pot. After drying the sprayed leaves in the air, a circular cutting (diameter: 4 mm) of agar containing Botrytis cinerea, which had been cultured in advance in a potato-sucrose agar medium at 20°C for 3 days, was attached directly to the center part of the leaves, and the pots maintained at 20-22°C under high humidity conditions. Three days after the inoculation, lesion areas of the disease were examined to calculate the inhibition rate according to the following equation. [formula]

CCCCOC(c1cccc(-n2nc(C(N)=O)nc2-c2cccc(C)n2)c1)C(C)C (centres unmarked) [Compound 7, 1-[3-[(1-butoxy-2-methyl)propyl]phenyl]-5-(6-methylpyridin-2-yl)-1H-1,2,4-triazole-3-carboxamide]
Inhibition rate (%) at concentration of 500 ppm Cucumber gray mold: 95%

CCCCOC(c1cccc(-n2nc(C(N)=O)nc2-c2sccc2C)c1)C(C)C (centres unmarked) [Compound 16, 1-[3-[(1-butoxy-2-methyl)propyl]phenyl]-5-(3-methylthiophen-2-yl)-1H-1,2,4-triazole-3-carboxamide]
Inhibition rate (%) at concentration of 500 ppm Cucumber gray mold: 94%
